Results reported in patent publication US20100209536A1, “Methods and Kits for Use in the Treatment and Prevention of Diseases or Conditions of the Immune System or Infectious Diseases” (The Brigham and Women's Hospital, Inc., priority 2006, published 2010).

Experiments:
Type in all cases: in vivo, human
[1] = test system: recurrent wheeze in the first 2 yrs; assay: Project Viva antioxidant study: maternal intake and recurrent wheeze in the first 2 yrs; details: including supplements
Excerpt: (§1) Study subjects were enrolled in Project Viva, as described above. Recruitment and retention procedures have previously been published (Gillman et al., J. Pediatr. 144:240-245, 2004). We obtained information directly from participants and from medical records as detailed previously (Rifas-Shiman, Paediatr. Perinat. Epidemiol. 20:35-42, 2006). Data collected from interviews and questionnaires included demographics (infant gender, maternal marital status, and race), socioeconomic status (education and household income), and reproductive history (maternal gravidity, pre-pregnancy height and body mass index, and smoking). Questionnaires that inquired about infant health, feeding, and the home environment were administered when the child was 6 months, 1 year, and 2 years of age. Among 2,128 delivered infants in Project Viva, we excluded 228 participants because of missing first and second trimester diet assessment data and an additional 37 participants with a gestation of less than 34 completed weeks.
(§2) We assessed maternal diet using semi-quantitative food-frequency questionnaires (FFQ) validated for use during pregnancy (Fawzi et al., Ann. Epidemiol. 14:754-762, 2004), and used in several of our previous studies of maternal diet and offspring outcomes (Oken et al., Am. J. Epidemiol. 160:774-783, 2004; Huh et al., Int. J. Epidemiol. 34:378-384, 2005; Gillman et al., Circulation 110:1990-1995, 2004). As noted above, the FFQ used at the 1st visit reflected intakes in the 1st trimester; the time referent was “during this pregnancy,” that is from the date of the last menstrual period until the assessment, at an average of about 10 weeks gestation. To assess vitamin and supplement intake during the 1st trimester, we administered a separate interview that queried dose, duration, and brand/type of multivitamin, prescribed prenatal vitamins, and supplements. Also as noted above, the FFQ used at the 2nd visit (26 to 28 weeks of gestation) reflected intakes during the 2nd trimester; the time referent was “during the past 3 months.” The 2nd trimester instrument was the same as that for the 1st trimester except that we assessed use of vitamins/supplements as part of the self-completed FFQ.
(§3) To calculate intake of nutrients, we again used the Harvard nutrient composition database, which contains food composition values from the U.S. Department of Agriculture, supplemented by other data sources (U.S. Department of Agriculture ARS. USDA National Nutrient Database for Standard Reference, Release 14, 5R14; 2001). All nutrients were adjusted for total energy intake using the nutrient residuals method (Willett, Am. J. Clin. Nutr. 45:354-360, 1987). Mean nutrient intakes from the 1st and 2nd trimesters were used as the exposure in the analyses. If a participant only completed one FFQ, then nutrients calculated from that questionnaire were taken as the exposure of interest. One thousand one hundred and thirty-five (88.0%) of the 1,290 participants completed both FFQs, 96 (7.4%) completed the first trimester FFQ only, and 59 (4.6%) completed the second trimester FFQ only.
(§4) We ascertained the wheeze outcomes from questions from the First Year and Second Year Questionnaires: “since your child was born/since your child was […], has he/she ever had wheezing (or whistiling in the chest)?” “Any wheeze” was defined as a positive response to the question at either the first or second year questionnaire. “Recurrent wheeze” was defined as positive responses to the questions in both the first and second year questionnaires. […] “Respiratory infections” was defined as positive responses to one of three questions: “since your child was born/12 months old, have you been told by a health care professional (such as a doctor, physician assistant, or nurse practitioner) that your child has: (a) bronchiolitis; (b) pneumonia; (c) bronchitis, croup, or any other respiratory infection?” on either the first or second year questionnaires. […]

[2] = test system: any wheeze in the first 2 yrs; assay: Project Viva antioxidant study: maternal intake and any wheeze in the first 2 yrs; details: for Any wheeze in the first 2 yrs, Univariate Model OR (95% CI) / Any wheeze in the first 2 yrs, Multivariable Model OR (95% CI): including supplements; for Association of total maternal intake with any wheeze in univariable models: total intakes
Excerpt: as §1, §2, §3, §4

[3] = test system: respiratory infections in the 2-year old children; assay: Project Viva antioxidant study: maternal intake and respiratory infections in 2-year old children
Excerpt: as §1
We assessed maternal diet using semi-quantitative food-frequency questionnaires (FFQ) validated for use during pregnancy (Fawzi et al., Ann. Epidemiol. 14:754-762, 2004), and used in several of our previous studies of maternal diet and offspring outcomes (Oken et al., Am. J. Epidemiol. 160:774-783, 2004; Huh et al., Int. J. Epidemiol. 34:378-384, 2005; Gillman et al., Circulation 110:1990-1995, 2004). As noted above, the FFQ used at the 1st visit reflected intakes in the 1st trimester; the time referent was “during this pregnancy,” that is from the date of the last menstrual period until the assessment, at an average of about 10 weeks gestation. […] Also as noted above, the FFQ used at the 2nd visit (26 to 28 weeks of gestation) reflected intakes during the 2nd trimester; the time referent was “during the past 3 months.” The 2nd trimester instrument was the same as that for the 1st trimester except that we assessed use of vitamins/supplements as part of the self-completed FFQ. […]

[4] = 2nd vs 1st (lowest) quartile of maternal intake
[5] = 2nd vs 1st (lowest) quartile of maternal intake, n = 1,038
[6] = 3rd vs 1st (lowest) quartile of maternal intake
[7] = 4th (highest) vs 1st (lowest) quartile of maternal intake
[8] = 2nd vs 1st (lowest) quartile of maternal intake, calorie adjusted, n = 1,161

Structure (SMILES)	Recurrent wheeze in the first 2 yrs, Multivariable Model OR (95% CI) [1, 4]	Recurrent wheeze in the first 2 yrs, Univariate Model OR (95% CI) [1, 5]	Recurrent wheeze in the first 2 yrs, Multivariable Model OR (95% CI) [1, 6]	Recurrent wheeze in the first 2 yrs, Univariate Model OR (95% CI) [1, 6]	Recurrent wheeze in the first 2 yrs, Multivariable Model OR (95% CI) [1, 7]	Recurrent wheeze in the first 2 yrs, Univariate Model OR (95% CI) [1, 7]	Any wheeze in the first 2 yrs, Univariate Model OR (95% CI) [2, 8]	Any wheeze in the first 2 yrs, Multivariable Model OR (95% CI) [2, 4]	Any wheeze in the first 2 yrs, Multivariable Model OR (95% CI) [2, 6]	Any wheeze in the first 2 yrs, Univariate Model OR (95% CI) [2, 6]	Any wheeze in the first 2 yrs, Multivariable Model OR (95% CI) [2, 7]	Any wheeze in the first 2 yrs, Univariate Model OR (95% CI) [2, 7]	Association of total maternal intake with any wheeze in univariable models [2]	Association of total maternal intake with respiratory infections in the children [3]
[Cu] [Copper, copper]	0.75 (0.43, 1.30)	0.63 (0.38, 1.03)	1.02 (0.60, 1.75)	0.67 (0.41, 1.09)	0.90 (0.51, 1.59)	0.57 (0.34, 0.95)^5	0.78 (0.55, 1.10)	0.93 (0.64, 1.35)	0.91 (0.62, 1.34)	0.71 (0.50, 1.01)	0.90 (0.61, 1.33)	0.69 (0.49, 0.99)^5	associated with lower risks	
Nc1nc2ncc(CNc3ccc(C(=O)N[C@@H](CCC(=O)O)C(=O)O)cc3)nc2c(=O)[nH]1 [Folic acid, folic acid]	0.93 (0.55, 1.58)	0.77 (0.48, 1.24)	0.75 (0.43, 1.28)	0.58 (0.35, 0.95)^5	0.68(0.38, 1.22)	0.46 (0.27, 0.78)^5	0.94 (0.67, 1.32)	1.13 (0.78, 1.64)	0.79 (0.54, 1.16)	0.63 (0.44, 0.89)^5	0.89 (0.60, 1.31)	0.64 (0.45, 0.91)^5	associated with lower risks	
CC(C)=CCC/C(C)=C/C=C/C(C)=C/C=C/C(C)=C/C=C/C=C(C)/C=C/C=C(C)/C=C/C=C(\C)CCC=C(C)C [Lycopene, lycopene]	1.06 (0.62, 1.83)	0.88 (0.53, 1.46)	1.40 (0.82, 2.40)	1.01 (0.62, 1.64)	0.75 (0.42, 1.33)	0.70 (0.42, 1.17)	1.27 (0.90, 1.80)	1.50 (1.02, 2.19)	1.67 (1.14, 2.45)	1.26 (0.90, 1.79)	0.96 (0.64, 1.42)	0.83 (0.58, 1.19)		
O=C1O[C@H]([C@@H](O)CO)C(O)=C1O [Vitamin C, ascorbic acid]	1.05 (0.62, 1.77)	1.02 (0.63, 1.65)	1.04 (0.60, 1.78)	0.85 (0.52, 1.40)	0.75 (0.41, 1.36)	0.56 (0.32, 0.97)^5	0.82 (0.58, 1.15)	0.93 (0.65, 1.35)	0.84 (0.58, 1.22)	0.65 (0.46, 0.93)^5	0.79 (0.54, 1.15)	0.67 (0.47, 0.94)^5	associated with lower risks	not associated
CC1=CCCC(C)(C)C1/C=C/C(C)=C/C=C/C(C)=C/C=C/C=C(C)/C=C/C=C(C)/C=C/C1=C(C)CCCC1(C)C (stereo not drawn) [α Carotene, α-carotene]	1.22 (0.71, 2.09)	0.98 (0.60, 1.60)	1.01 (0.57, 1.80)	0.74 (0.43, 1.25)	1.26 (0.72, 2.21)	0.88 (0.53, 1.45)	0.77 (0.54, 1.09)	0.87 (0.60, 1.26)	1.00 (0.69, 1.45)	0.82 (0.58, 1.16)	0.92 (0.63, 1.34)	0.75 (0.53, 1.06)		
CC1=C(/C=C/C(C)=C/C=C/C(C)=C/C=C/C=C(C)/C=C/C=C(C)/C=C/C2=C(C)CCCC2(C)C)C(C)(C)CCC1 [β Carotene, β-carotene]	1.24 (0.72, 2.13)	0.85 (0.52, 1.37)	1.23 (0.72, 2.13)	0.76 (0.46, 1.24)	1.01 (0.56, 1.81)	0.58 (0.34, 0.97)^5	1.01 (0.71, 1.41)	1.28 (0.88, 1.88)	1.21 (0.82, 1.77)	0.85 (0.60, 1.20)	0.98 (0.66, 1.47)	0.71 (0.50, 1.02)	associated with lower risks	
CC1=C(/C=C/C(C)=C/C=C/C(C)=C/C=C/C=C(C)/C=C/C=C(C)/C=C/C2=C(C)C[C@@H](O)CC2(C)C)C(C)(C)CCC1 [β Cryptoxanthin]	1.33 (0.78, 2.28)	1.36 (0.82, 2.24)	0.97 (0.55, 1.72)	0.95 (0.56, 1.63)	1.28 (0.73, 2.26)	1.05 (0.62, 1.78)	0.80 (0.57, 1.13)	0.82 (0.57, 1.18)	0.81 (0.56, 1.18)	0.72 (0.51, 1.02)	0.97 (0.67, 1.41)	0.92 (0.66, 1.30)		
